Our source for the Hepatotoxicity values is ChEMBL document CHEMBL1697731, “Cheminformatics analysis of assertions mined from literature that describe drug-induced liver injury in different species” (Chem Res Toxicol, 2010).

The structures appear in SMILES notation.

The test system of data set [1] is Hepatotoxicity. The data set can be described thus: Literature-mined compound from Fourches et al multi-species drug-induced liver injury (DILI) dataset, effect in humans. Particulars: human.
In data set [2] the test system is Hepatotoxicity. The data set can be described thus: Literature-mined compound from Fourches et al multi-species drug-induced liver injury (DILI) dataset, effect in rodents. To be noted: rodentia.
Data set [3] concerns Hepatotoxicity. The data set can be described thus: Literature-mined compound from Fourches et al multi-species drug-induced liver injury (DILI) dataset, effect in non-rodents.

As to `CS(=O)(=O)c1ccc(C2=C(c3ccccc3)C(=O)OC2)cc1` [ROFECOXIB], the Hepatotoxicity entry was “drug-induced liver injury reported” in the data set with Hepatotoxicity [1], “drug-induced liver injury reported” in the data set on Hepatotoxicity [2] and “no drug-induced liver injury reported” in the data set on Hepatotoxicity [3].

`Nc1n[n+]([O-])c2ccccc2[n+]1[O-]` [TIRAPAZAMINE]: the results for the Hepatotoxicity result with Hepatotoxicity [1], in the data set with Hepatotoxicity [2] and in the data set on Hepatotoxicity [3] were “no drug-induced liver injury reported”, “drug-induced liver injury reported” and “no drug-induced liver injury reported”, respectively.

In the case of `COC(=O)[C@H](c1ccccc1Cl)N1CCc2sccc2C1` [CLOPIDOGREL], the Hepatotoxicity result in the data set with Hepatotoxicity [1] (Liver) is given as “drug-induced liver injury reported”; in the data set with Hepatotoxicity [2] (Liver) it was “drug-induced liver injury reported”; in the data set on Hepatotoxicity [3] (Liver), “no drug-induced liver injury reported”.

As to `CC/C(=C(/c1ccc(OCCN(C)C)cc1)c1cccc(O)c1)c1ccccc1` [DROLOXIFENE], the values for the Hepatotoxicity result with Hepatotoxicity [1], in the data set on Hepatotoxicity [2] and in the data set on Hepatotoxicity [3] were “no drug-induced liver injury reported”, “drug-induced liver injury reported” and “no drug-induced liver injury reported”, respectively.

Consider `Nc1ccc(O)c(C(=O)O)c1` [MESALAMINE], for which the Hepatotoxicity result is “drug-induced liver injury reported” with Hepatotoxicity [1], “drug-induced liver injury reported” with Hepatotoxicity [2] and “no drug-induced liver injury reported” in the data set on Hepatotoxicity [3].

In the case of `CN(C)C(=O)C(CCN1CCC(O)(c2ccc(Cl)cc2)CC1)(c1ccccc1)c1ccccc1` [LOPERAMIDE], the Hepatotoxicity entry in the data set on Hepatotoxicity [1] is “no drug-induced liver injury reported”; in the data set on Hepatotoxicity [2] it was “drug-induced liver injury reported”; with Hepatotoxicity [3], “no drug-induced liver injury reported”.

For the molecule `CN1C(=O)CN=C(c2ccccc2)c2cc(Cl)ccc21` [DIAZEPAM], the Hepatotoxicity entry in the data set with Hepatotoxicity [1] (Liver), in the data set with Hepatotoxicity [2] (Liver) and with Hepatotoxicity [3] (Liver) was “drug-induced liver injury reported” each time.

Take `Nc1ccc(S(=O)(=O)Nc2ncccn2)cc1` [SULFADIAZINE]: the Hepatotoxicity entry was “drug-induced liver injury reported” in the data set on Hepatotoxicity [1] (Liver), “no drug-induced liver injury reported” with Hepatotoxicity [2] (Liver) and “no drug-induced liver injury reported” in the data set on Hepatotoxicity [3] (Liver).

For the molecule `CCCCCCCCCCCCCCCCOP(=O)([O-])OCC[N+](C)(C)C` [MILTEFOSINE], the Hepatotoxicity entry is recorded as “drug-induced liver injury reported” in the data set on Hepatotoxicity [1], “no drug-induced liver injury reported” in the data set with Hepatotoxicity [2] and “no drug-induced liver injury reported” with Hepatotoxicity [3].

As to `Fc1ccc([C@@H]2CCNC[C@H]2COc2ccc3c(c2)OCO3)cc1` [PAROXETINE], the Hepatotoxicity result in the data set with Hepatotoxicity [1] is “drug-induced liver injury reported”; with Hepatotoxicity [2], “no drug-induced liver injury reported”; in the data set with Hepatotoxicity [3], “no drug-induced liver injury reported”.

`Oc1c(I)cc(Cl)c2cccnc12` [CLIOQUINOL]: the Hepatotoxicity entry in the data set with Hepatotoxicity [1] is “no drug-induced liver injury reported”; in the data set on Hepatotoxicity [2], “drug-induced liver injury reported”; in the data set on Hepatotoxicity [3], “no drug-induced liver injury reported”.

On to `CC1=NS(=O)(=O)c2cc(Cl)ccc2N1` [DIAZOXIDE], for which the values for the Hepatotoxicity entry with Hepatotoxicity [1], with Hepatotoxicity [2] and with Hepatotoxicity [3] were “drug-induced liver injury reported”, “drug-induced liver injury reported” and “no drug-induced liver injury reported”, respectively.

Take `Cc1cn[nH]c1` [FOMEPIZOLE]: the figures for the Hepatotoxicity result in the data set with Hepatotoxicity [1], in the data set on Hepatotoxicity [2] and with Hepatotoxicity [3] were “drug-induced liver injury reported”, “drug-induced liver injury reported” and “no drug-induced liver injury reported”, respectively.

As for `O=S(=O)([O-])Oc1ccc(C(c2ccc(OS(=O)(=O)[O-])cc2)c2ccccn2)cc1.[Na+].[Na+]` [SODIUM PICOSULFATE], the Hepatotoxicity result is recorded as “drug-induced liver injury reported” with Hepatotoxicity [1], “no drug-induced liver injury reported” in the data set on Hepatotoxicity [2] and “no drug-induced liver injury reported” in the data set with Hepatotoxicity [3].

Turning to `Cc1c(C)c2c(c(C)c1O)CCC(C)(COc1ccc(CC3SC(=O)NC3=O)cc1)O2` (centres undefined) [TROGLITAZONE], the Hepatotoxicity entry with Hepatotoxicity [1], in the data set with Hepatotoxicity [2] and with Hepatotoxicity [3] was “drug-induced liver injury reported” throughout.

Take `CC(N)Cc1ccccc1` (centres undefined) [AMPHETAMINE]: the results for the Hepatotoxicity entry in the data set with Hepatotoxicity [1], in the data set with Hepatotoxicity [2] and in the data set with Hepatotoxicity [3] were “drug-induced liver injury reported”, “drug-induced liver injury reported” and “no drug-induced liver injury reported”, respectively.

In the case of `Cc1c(N(C)C)c(=O)n(-c2ccccc2)n1C` [AMINOPYRINE], the Hepatotoxicity entry with Hepatotoxicity [1] is reported as “drug-induced liver injury reported”; in the data set on Hepatotoxicity [2], “drug-induced liver injury reported”; in the data set with Hepatotoxicity [3], “no drug-induced liver injury reported”.

Take `C[C@H](CCC(=O)O)[C@H]1CC[C@H]2[C@@H]3C(=O)C[C@@H]4CC(=O)CC[C@]4(C)[C@H]3CC(=O)[C@]12C` [DEHYDROCHOLIC ACID]: the Hepatotoxicity entry is reported as “no drug-induced liver injury reported” in the data set on Hepatotoxicity [1], “drug-induced liver injury reported” in the data set with Hepatotoxicity [2] and “no drug-induced liver injury reported” in the data set with Hepatotoxicity [3].

`COc1ccc(C(=O)N2CCN(c3ccc4c(c3)CCC(=O)N4)CC2)cc1OC` [VESNARINONE]: the Hepatotoxicity result with Hepatotoxicity [1] is reported as “drug-induced liver injury reported”; with Hepatotoxicity [2], “drug-induced liver injury reported”; in the data set on Hepatotoxicity [3], “no drug-induced liver injury reported”.

For the molecule `O=C(OC[C@H]1O[C@@H](OC(=O)c2cc(O)c(O)c(OC(=O)c3cc(O)c(O)c(O)c3)c2)[C@H](OC(=O)c2cc(O)c(O)c(OC(=O)c3cc(O)c(O)c(O)c3)c2)[C@@H](OC(=O)c2cc(O)c(O)c(OC(=O)c3cc(O)c(O)c(O)c3)c2)[C@@H]1OC(=O)c1cc(O)c(O)c(OC(=O)c2cc(O)c(O)c(O)c2)c1)c1cc(O)c(O)c(OC(=O)c2cc(O)c(O)c(O)c2)c1` [TANNIC ACID], the Hepatotoxicity entry is given as “no drug-induced liver injury reported” in the data set with Hepatotoxicity [1], “drug-induced liver injury reported” with Hepatotoxicity [2] and “drug-induced liver injury reported” in the data set on Hepatotoxicity [3].

With `Cc1cc(-c2ccc(/N=N/c3c(S(=O)(=O)[O-])cc4cc(S(=O)(=O)[O-])cc(N)c4c3O)c(C)c2)ccc1/N=N/c1c(S(=O)(=O)[O-])cc2cc(S(=O)(=O)[O-])cc(N)c2c1O.[Na+].[Na+].[Na+].[Na+]` [TRYPAN BLUE], the Hepatotoxicity entry is given as “no drug-induced liver injury reported” in the data set with Hepatotoxicity [1], “drug-induced liver injury reported” with Hepatotoxicity [2] and “no drug-induced liver injury reported” in the data set with Hepatotoxicity [3].

On to `O=C1CCC(N2C(=O)c3ccccc3C2=O)C(=O)N1` (centres undefined) [THALIDOMIDE], for which the figures for the Hepatotoxicity result in the data set with Hepatotoxicity [1], with Hepatotoxicity [2] and in the data set with Hepatotoxicity [3] were “drug-induced liver injury reported”, “drug-induced liver injury reported” and “no drug-induced liver injury reported”, respectively.

As for `CC(=O)c1ccc(S(=O)(=O)NC(=O)NC2CCCCC2)cc1` [ACETOHEXAMIDE], the Hepatotoxicity entry in the data set on Hepatotoxicity [1] is reported as “drug-induced liver injury reported”; in the data set on Hepatotoxicity [2], “no drug-induced liver injury reported”; in the data set on Hepatotoxicity [3], “no drug-induced liver injury reported”.
